From ChEMBL document CHEMBL5291721, “A preclinical secondary pharmacology resource illuminates target-adverse drug reaction associations of marketed drugs” (Nat Commun, 2023)

How the values were obtained:
[1] = biological target: T1, Muscarinic acetylcholine receptor M1 (Homo sapiens, UniProt P11229); type: functional, cell-based
T1 sequence (P11229 whole entry): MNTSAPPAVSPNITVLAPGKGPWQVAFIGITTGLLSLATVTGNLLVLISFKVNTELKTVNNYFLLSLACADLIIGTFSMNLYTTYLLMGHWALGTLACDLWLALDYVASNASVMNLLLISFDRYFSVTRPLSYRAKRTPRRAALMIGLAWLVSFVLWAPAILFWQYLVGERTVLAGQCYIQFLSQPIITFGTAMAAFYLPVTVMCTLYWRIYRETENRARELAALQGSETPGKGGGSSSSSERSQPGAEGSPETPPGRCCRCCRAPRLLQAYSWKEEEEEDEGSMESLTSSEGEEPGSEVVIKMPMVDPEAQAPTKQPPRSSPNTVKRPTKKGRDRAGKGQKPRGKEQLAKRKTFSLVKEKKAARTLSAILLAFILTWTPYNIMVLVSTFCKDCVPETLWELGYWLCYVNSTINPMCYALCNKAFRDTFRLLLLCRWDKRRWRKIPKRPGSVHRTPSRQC

[2] = biological target: Vascular endothelial growth factor receptor 2 (Homo sapiens, UniProt P35968); type: functional
[3] = biological target: T2, Estrogen receptor (Homo sapiens, UniProt P03372)
T2 sequence (P03372 whole entry): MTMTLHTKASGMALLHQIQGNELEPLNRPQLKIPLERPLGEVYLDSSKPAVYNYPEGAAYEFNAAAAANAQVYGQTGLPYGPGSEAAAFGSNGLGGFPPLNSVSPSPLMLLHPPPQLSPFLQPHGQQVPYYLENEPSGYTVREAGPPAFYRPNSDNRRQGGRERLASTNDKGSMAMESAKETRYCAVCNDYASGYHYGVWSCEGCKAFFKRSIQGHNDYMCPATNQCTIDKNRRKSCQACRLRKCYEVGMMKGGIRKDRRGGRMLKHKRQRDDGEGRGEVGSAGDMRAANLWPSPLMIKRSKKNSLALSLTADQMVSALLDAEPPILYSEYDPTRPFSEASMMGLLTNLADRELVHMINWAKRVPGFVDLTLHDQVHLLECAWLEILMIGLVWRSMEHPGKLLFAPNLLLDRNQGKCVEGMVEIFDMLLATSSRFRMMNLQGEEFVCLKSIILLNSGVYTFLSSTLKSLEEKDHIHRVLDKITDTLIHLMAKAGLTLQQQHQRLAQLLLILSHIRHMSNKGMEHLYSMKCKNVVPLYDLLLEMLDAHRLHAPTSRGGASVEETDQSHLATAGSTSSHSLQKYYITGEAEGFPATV

[4] = biological target: T3, Alpha-1A adrenergic receptor (Homo sapiens, UniProt P35348); type: functional, cell-based
T3 sequence (P35348 whole entry): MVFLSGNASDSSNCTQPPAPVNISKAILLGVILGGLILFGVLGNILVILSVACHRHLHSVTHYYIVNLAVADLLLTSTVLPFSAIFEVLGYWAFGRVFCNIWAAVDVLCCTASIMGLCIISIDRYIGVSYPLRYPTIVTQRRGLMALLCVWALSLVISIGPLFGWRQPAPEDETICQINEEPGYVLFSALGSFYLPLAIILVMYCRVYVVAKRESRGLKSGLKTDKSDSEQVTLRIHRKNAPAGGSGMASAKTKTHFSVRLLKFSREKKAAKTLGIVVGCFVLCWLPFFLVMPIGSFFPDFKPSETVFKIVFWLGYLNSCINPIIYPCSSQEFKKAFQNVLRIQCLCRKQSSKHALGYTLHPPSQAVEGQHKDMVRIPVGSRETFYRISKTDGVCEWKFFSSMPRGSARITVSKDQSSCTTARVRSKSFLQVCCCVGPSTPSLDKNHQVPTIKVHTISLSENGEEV

[5] = biological target: T4, Adenosine receptor A3 (Homo sapiens, UniProt P0DMS8)
T4 sequence (P0DMS8 whole entry): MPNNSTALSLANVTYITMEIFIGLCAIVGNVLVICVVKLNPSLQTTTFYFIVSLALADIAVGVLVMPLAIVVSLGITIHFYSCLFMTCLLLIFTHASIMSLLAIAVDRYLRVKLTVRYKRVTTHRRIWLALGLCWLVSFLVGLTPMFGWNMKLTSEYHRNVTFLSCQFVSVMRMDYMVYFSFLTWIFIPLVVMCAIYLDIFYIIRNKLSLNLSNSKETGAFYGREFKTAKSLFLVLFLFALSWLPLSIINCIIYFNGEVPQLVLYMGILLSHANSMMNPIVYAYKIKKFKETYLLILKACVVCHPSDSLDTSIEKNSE

[6] = biological target: Mu-type opioid receptor (Homo sapiens, UniProt P35372)
[7] = biological target: T3, Alpha-1A adrenergic receptor; type: functional, cell-based; remark: listed apart in the source
[8] = biological target: Adenosine receptor A2a (Homo sapiens, UniProt P29274)
[9] = biological target: T5, Gastrin/cholecystokinin type B receptor (Homo sapiens, UniProt P32239)
T5 sequence (P32239 whole entry): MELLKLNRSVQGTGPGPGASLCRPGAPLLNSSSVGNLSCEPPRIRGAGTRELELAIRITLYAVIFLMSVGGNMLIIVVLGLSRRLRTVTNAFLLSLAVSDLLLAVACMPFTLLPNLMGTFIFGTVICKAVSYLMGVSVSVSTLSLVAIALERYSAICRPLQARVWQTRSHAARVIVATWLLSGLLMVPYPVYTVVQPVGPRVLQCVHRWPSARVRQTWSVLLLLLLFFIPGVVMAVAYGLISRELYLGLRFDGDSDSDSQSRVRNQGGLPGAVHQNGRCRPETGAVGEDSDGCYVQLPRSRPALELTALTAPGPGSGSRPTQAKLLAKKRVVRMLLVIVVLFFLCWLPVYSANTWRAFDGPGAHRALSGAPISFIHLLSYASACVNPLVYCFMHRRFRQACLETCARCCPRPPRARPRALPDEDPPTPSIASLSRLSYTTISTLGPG

[10] = biological target: Gamma-aminobutyric acid receptor subunit alpha-1 (Rattus norvegicus, UniProt P62813); type: functional
[11] = biological target: Beta-1 adrenergic receptor (Homo sapiens, UniProt P08588); type: functional
[12] = biological target: Growth hormone secretagogue receptor type 1 (Homo sapiens, UniProt Q92847)
[13] = biological target: 3',5'-cyclic-AMP phosphodiesterase 4D (Homo sapiens, UniProt Q08499); type: functional
[14] = biological target: Glutamate receptor ionotropic, NMDA 1 (Rattus norvegicus, UniProt P35439)
Note: assay procedure not described here.

Growth hormone secretagogue receptor type 1, sequence (Q92847 whole entry): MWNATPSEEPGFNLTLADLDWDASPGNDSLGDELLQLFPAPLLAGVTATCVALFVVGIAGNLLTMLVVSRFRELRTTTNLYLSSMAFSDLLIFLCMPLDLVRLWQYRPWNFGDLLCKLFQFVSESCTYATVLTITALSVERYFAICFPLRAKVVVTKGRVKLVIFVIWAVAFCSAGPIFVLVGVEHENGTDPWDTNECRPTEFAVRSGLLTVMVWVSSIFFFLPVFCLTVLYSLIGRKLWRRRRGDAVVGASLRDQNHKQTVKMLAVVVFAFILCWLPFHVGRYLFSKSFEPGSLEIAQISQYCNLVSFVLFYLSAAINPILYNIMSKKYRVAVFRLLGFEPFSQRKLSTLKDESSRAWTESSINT
Vascular endothelial growth factor receptor 2, sequence (P35968 whole entry): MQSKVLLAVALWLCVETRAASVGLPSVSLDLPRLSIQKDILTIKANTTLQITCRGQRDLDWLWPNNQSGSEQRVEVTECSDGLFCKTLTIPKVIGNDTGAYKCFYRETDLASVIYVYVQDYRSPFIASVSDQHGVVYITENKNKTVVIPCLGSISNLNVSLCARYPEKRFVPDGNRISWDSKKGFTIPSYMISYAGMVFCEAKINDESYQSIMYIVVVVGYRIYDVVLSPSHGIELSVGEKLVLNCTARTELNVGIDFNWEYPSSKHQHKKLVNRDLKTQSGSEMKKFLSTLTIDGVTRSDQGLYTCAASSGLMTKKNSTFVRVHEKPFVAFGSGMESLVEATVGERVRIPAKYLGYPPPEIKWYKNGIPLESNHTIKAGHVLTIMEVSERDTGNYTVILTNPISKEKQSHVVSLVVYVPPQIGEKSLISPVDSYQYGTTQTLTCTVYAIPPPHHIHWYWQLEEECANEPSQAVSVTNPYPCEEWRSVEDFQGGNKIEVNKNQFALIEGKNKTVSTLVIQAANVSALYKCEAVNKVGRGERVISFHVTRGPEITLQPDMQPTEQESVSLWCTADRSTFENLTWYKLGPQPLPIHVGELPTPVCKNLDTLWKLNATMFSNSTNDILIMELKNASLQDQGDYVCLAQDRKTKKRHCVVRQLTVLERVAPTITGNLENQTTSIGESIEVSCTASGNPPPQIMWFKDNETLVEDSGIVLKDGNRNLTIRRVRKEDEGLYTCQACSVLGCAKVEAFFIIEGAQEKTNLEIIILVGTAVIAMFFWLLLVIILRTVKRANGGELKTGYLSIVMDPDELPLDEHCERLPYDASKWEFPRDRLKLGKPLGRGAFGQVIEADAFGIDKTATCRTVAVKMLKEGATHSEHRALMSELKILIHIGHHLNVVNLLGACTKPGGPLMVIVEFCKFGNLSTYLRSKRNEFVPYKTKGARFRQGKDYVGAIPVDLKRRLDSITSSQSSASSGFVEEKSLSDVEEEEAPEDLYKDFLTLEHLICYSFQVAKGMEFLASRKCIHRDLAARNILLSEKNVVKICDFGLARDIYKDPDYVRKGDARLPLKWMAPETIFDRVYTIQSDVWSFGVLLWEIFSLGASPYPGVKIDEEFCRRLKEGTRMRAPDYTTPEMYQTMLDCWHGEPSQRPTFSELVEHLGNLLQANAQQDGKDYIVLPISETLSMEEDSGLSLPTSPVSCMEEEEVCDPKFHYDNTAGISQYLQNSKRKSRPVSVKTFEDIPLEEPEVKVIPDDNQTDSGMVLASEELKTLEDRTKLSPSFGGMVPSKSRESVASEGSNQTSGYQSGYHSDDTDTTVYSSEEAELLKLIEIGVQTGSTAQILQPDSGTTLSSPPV
Adenosine receptor A2a, sequence (P29274 whole entry): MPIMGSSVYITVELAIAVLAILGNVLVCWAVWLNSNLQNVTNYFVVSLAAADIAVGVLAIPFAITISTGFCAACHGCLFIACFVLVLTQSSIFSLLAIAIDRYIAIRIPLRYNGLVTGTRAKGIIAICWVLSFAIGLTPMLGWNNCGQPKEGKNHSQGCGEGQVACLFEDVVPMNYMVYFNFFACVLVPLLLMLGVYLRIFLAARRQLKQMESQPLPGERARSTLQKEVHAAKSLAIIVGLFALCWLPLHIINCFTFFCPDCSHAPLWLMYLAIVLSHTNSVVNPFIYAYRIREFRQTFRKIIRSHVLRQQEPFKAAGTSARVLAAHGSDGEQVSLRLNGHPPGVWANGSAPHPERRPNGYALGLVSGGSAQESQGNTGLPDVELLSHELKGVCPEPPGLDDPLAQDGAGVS
Beta-1 adrenergic receptor, sequence (P08588 whole entry): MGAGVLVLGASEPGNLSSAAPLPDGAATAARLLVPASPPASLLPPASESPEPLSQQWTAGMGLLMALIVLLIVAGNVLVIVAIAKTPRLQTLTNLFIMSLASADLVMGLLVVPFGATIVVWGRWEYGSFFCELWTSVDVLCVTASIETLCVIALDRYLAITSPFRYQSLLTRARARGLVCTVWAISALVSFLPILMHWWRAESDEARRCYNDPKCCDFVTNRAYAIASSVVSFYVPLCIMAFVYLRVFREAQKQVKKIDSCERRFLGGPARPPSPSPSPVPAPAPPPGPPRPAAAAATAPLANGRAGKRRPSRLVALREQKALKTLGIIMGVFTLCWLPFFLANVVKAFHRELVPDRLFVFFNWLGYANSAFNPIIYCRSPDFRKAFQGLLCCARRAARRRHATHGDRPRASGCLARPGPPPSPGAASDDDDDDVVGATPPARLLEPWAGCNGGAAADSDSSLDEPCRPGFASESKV
Mu-type opioid receptor, sequence (P35372 whole entry): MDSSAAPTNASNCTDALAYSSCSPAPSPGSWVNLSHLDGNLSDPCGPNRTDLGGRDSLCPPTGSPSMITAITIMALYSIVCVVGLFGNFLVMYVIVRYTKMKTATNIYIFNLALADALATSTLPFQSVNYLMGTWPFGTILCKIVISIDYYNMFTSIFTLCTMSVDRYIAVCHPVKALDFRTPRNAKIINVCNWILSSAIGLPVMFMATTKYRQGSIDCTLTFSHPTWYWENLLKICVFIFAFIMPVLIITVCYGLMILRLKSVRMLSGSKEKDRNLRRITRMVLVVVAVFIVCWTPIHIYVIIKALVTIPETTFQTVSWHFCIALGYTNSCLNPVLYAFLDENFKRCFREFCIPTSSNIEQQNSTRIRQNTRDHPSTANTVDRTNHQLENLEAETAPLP
Gamma-aminobutyric acid receptor subunit alpha-1, sequence (P62813 whole entry): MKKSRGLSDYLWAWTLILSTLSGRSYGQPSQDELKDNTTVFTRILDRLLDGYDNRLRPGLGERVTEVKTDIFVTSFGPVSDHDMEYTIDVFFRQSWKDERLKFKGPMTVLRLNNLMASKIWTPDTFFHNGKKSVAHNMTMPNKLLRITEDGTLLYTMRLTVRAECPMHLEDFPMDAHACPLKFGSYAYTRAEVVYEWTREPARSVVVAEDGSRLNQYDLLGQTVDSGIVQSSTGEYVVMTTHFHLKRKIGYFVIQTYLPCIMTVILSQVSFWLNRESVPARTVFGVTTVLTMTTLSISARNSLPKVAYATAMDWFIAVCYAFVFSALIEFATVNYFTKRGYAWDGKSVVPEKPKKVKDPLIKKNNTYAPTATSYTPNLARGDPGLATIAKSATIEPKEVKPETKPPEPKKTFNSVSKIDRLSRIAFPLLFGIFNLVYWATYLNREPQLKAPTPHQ
3',5'-cyclic-AMP phosphodiesterase 4D, sequence (Q08499 whole entry): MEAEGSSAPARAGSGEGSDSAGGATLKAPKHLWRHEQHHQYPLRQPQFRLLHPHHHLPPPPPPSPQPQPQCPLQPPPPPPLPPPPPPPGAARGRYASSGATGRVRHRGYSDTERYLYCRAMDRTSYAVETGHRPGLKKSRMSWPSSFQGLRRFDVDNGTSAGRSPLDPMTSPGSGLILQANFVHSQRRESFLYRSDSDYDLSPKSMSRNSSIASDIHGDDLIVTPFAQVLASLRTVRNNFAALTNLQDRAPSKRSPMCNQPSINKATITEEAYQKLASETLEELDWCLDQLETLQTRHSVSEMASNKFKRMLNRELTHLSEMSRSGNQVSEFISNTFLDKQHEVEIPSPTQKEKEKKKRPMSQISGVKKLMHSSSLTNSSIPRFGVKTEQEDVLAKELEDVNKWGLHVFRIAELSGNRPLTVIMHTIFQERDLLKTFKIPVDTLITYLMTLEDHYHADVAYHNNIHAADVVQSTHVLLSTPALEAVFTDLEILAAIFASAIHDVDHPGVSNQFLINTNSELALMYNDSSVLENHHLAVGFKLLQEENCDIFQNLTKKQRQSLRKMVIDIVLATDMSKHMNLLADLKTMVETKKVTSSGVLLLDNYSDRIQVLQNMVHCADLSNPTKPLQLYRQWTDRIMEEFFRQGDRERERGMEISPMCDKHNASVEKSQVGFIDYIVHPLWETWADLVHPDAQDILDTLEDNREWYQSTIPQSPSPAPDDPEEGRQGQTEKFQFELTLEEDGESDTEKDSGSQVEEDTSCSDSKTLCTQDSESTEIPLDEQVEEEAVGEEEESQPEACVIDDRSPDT

Compound	AC50 [1] [µM]	AC50 [2] [µM]	AC50 [3] [µM]	AC50 [4] [µM]	AC50 [5] [µM]	AC50 [6] [µM]	AC50 [7] [µM]	AC50 [8] [µM]	AC50 [9] [µM]	AC50 [10] [µM]	AC50 [11] [µM]	AC50 [12] [µM]	AC50 [13] [µM]	AC50 [14] [µM]
CC(CN1CC(=O)NC(=O)C1)N1CC(=O)NC(=O)C1 (stereo not drawn) [RAZOXANE]	> 30	> 30	> 30	> 30	> 30	–	–	–	–	–	–	–	–	–
O=C(O)c1cc(/N=N/c2ccc(O)c(C(=O)O)c2)ccc1O [OLSALAZINE]	> 30	12.3	> 30	> 30	> 30	–	–	–	–	–	–	–	–	–
N[C@@H](CS)C(=O)O [CYSTEINE]	> 30	> 30	–	> 30	> 30	–	–	–	–	–	–	–	–	–
OC[C@H]1O[C@@H](c2ccc(F)c(Cc3cc4ccccc4s3)c2)[C@H](O)[C@@H](O)[C@@H]1O [IPRAGLIFLOZIN]	19.8	–	> 30	> 30	> 30	–	–	–	–	–	–	–	–	–
CC(C)Cc1ccc(C(C)C(=O)O)cc1 (stereo not drawn) [IBUPROFEN]	–	> 30	> 30	> 30	> 30	> 30	> 30	> 30	> 30	> 10	> 10	> 30	> 30	> 10
O=C1/C(=C2\Nc3ccc(S(=O)(=O)O)cc3C2=O)Nc2ccc(S(=O)(=O)O)cc21 [INDIGOTINDISULFONATE]	> 30	3.05	–	> 30	0.995	–	–	–	–	–	–	–	–	–
C[C@@H]1C[C@H]2[C@@H]3CCC4=CC(=O)C=C[C@]4(C)[C@@]3(Cl)[C@@H](O)C[C@]2(C)[C@@]1(OC(=O)c1ccco1)C(=O)CCl [MOMETASONE FUROATE]	> 30	> 30	–	> 30	1.64	–	–	–	–	–	–	–	–	–
CCCN(CCC)C(=O)Cc1c(-c2ccc(Cl)cc2)nc2ccc(Cl)cn12 [ALPIDEM]	> 10	–	> 30	> 30	–	> 10	–	> 30	> 30	0.0431	> 30	> 30	13	> 30
CC(=O)O[C@]1(C(C)=O)CC[C@H]2[C@@H]3C=C(C)C4=CC(=O)CC[C@@H]4[C@H]3CC[C@@]21C [NOMEGESTROL ACETATE]	> 10	–	> 30	> 30	–	–	> 30	> 30	–	2.5	> 30	–	14	> 10
CCn1cc(C(=O)O)c(=O)c2cc3c(cc21)OCO3 [OXOLINIC ACID]	> 30	> 30	–	> 30	> 30	–	–	–	–	–	–	–	–	–
COc1cc2nccc(Oc3ccc(NC(=O)C4(C(=O)Nc5ccc(F)cc5)CC4)cc3)c2cc1OC [CABOZANTINIB]	2.72	–	> 30	> 30	0.379	> 30	> 30	> 30	–	> 30	> 30	> 30	10	–
N[C@@H](CO)C(=O)O [SERINE]	> 30	> 30	–	> 30	> 30	–	–	–	–	–	–	–	–	–
